{
  "source": "patent US4224448A",
  "about": "“2'-(5'-Nitrofuryl) substituted quinolines” (priority 1966, dated 1980)",
  "experiment_in_all_cases": "Minimum inhibitory concentration, conventional tube dilution method",
  "assay_type_in_all_cases": "cell-based",
  "key": {"[1]": {"tested_on": "Staph. aureus", "details": "Staphylococcus aureus; gram-positive; tube dilution, 37 degrees, 24 hours; between 1 and 6 strains; mg/100 cc; decimal comma; read-out: Minimal Inhibitory Concentration, Staph. aureus", "description": "(§1) The activity of some of the new nitrofuryl quinoline derivatives of the present invention is exemplified in Table 1 against a gram-positive (Staph. aureus), a gram-negative (Salmonella) bacterium and a fungus (Candida albicans). Table 1 indicates the minimum inhibitory concentration of the compound under reference in mg/100 cc required in order to inhibit the growth between 1 and 6 strains of each type. The measurements have been carried out by the conventional tube dilution method at 37 degrees after 24 hours."}, "[2]": {"tested_on": "Salmonella", "details": "read-out: Minimal Inhibitory Concentration, Salm.", "description": "as §1"}, "[3]": {"tested_on": "Candida albicans", "details": "fungus, tube dilution, 37 degrees, 24 hours, between 1 and 6 strains, mg/100 cc, decimal comma, read-out: Minimal Inhibitory Concentration, Cand. Alb.", "description": "as §1"}, "[4]": {"details": "gram-negative, tube dilution, 37 degrees, 24 hours, between 1 and 6 strains, mg/100 cc, decimal comma"}},
  "note": "Like-named read-outs stand apart in the source and are kept apart here.",
  "data": [
    {"molecule": "O=[N+]([O-])c1ccc(-c2cc(CC(O)C(Cl)(Cl)Cl)nc3ccccc23)o1", "note": "(stereo not drawn) [drawing 12 H NF H H H H]", "values": [
      {"measurement": "MIC", "setting": "[1]", "result": 0.5, "unit": "µg/mL"},
      {"measurement": "MIC", "setting": "[2]; [4]", "result": "> 50", "unit": "µg/mL"},
      {"measurement": "MIC", "setting": "[3]", "result": "> 50", "unit": "µg/mL"}
    ]},
    {"molecule": "CCc1ccc2nc(C)cc(-c3ccc([N+](=O)[O-])o3)c2c1", "note": "[CH3 H NF H C2 H5 H H, 2-methyl-4-[2'-(5'-nitrofuryl)]-6-ethyl quinoline]", "values": [
      {"measurement": "MIC", "setting": "[1]", "result": 0.1, "unit": "µg/mL"},
      {"measurement": "MIC", "setting": "[2]; [4]", "result": 25, "unit": "µg/mL"},
      {"measurement": "MIC", "setting": "[3]", "result": 25, "unit": "µg/mL"}
    ]},
    {"molecule": "CCc1cc(-c2ccc([N+](=O)[O-])o2)c2ccc(C)cc2[n+]1[O-]", "note": "[O C2 H5 H NF H H CH3 H]", "values": [
      {"measurement": "MIC", "setting": "[1]", "result": 0.5, "unit": "µg/mL"},
      {"measurement": "MIC", "setting": "[2]; [4]", "result": "25 to 50", "unit": "µg/mL"},
      {"measurement": "MIC", "setting": "[3]", "result": "< 5", "unit": "µg/mL"}
    ]},
    {"molecule": "CCCc1cc(-c2ccc([N+](=O)[O-])o2)c2ccc(C)cc2[n+]1[O-]", "note": "[OC3 H7 H NF H H CH3 H]", "values": [
      {"measurement": "MIC", "setting": "[1]", "result": 1, "unit": "µg/mL"},
      {"measurement": "MIC", "setting": "[2]; 24 h", "result": "> 50", "unit": "µg/mL"},
      {"measurement": "MIC", "setting": "[3]", "result": "> 50", "unit": "µg/mL"}
    ]},
    {"molecule": "CCOc1ccc2c(-c3ccc([N+](=O)[O-])o3)cc(C(=O)O)nc2c1", "note": "[COOH H NF H H OC2 H5 H, 2-carboxy-4-[2'-(5'-nitrofuryl)]-7-ethoxy quinoline]", "values": [
      {"measurement": "MIC", "setting": "[1]", "result": 0.5, "unit": "µg/mL"},
      {"measurement": "MIC", "setting": "[2]; [4]", "result": 5, "unit": "µg/mL"},
      {"measurement": "MIC", "setting": "[3]", "result": "> 50", "unit": "µg/mL"}
    ]},
    {"molecule": "CC(=O)Nc1ccc2c(-c3ccc([N+](=O)[O-])o3)cc(C)nc2c1C", "note": "[CH3 H NF H H NHCOCH3 CH3]", "values": [
      {"measurement": "MIC", "setting": "[1]", "result": 1, "unit": "µg/mL"},
      {"measurement": "MIC", "setting": "[2]; [4]", "result": "> 50", "unit": "µg/mL"},
      {"measurement": "MIC", "setting": "[3]", "result": "> 50", "unit": "µg/mL"}
    ]},
    {"molecule": "CCc1cc(-c2ccc([N+](=O)[O-])o2)c2ccc(C)cc2n1", "note": "[C2 H5 H NF H H CH3 H]", "values": [
      {"measurement": "MIC", "setting": "[1]", "result": 5, "unit": "µg/mL"},
      {"measurement": "MIC", "setting": "[2]; [4]", "result": "> 50", "unit": "µg/mL"},
      {"measurement": "MIC", "setting": "[3]", "result": "> 50", "unit": "µg/mL"}
    ]},
    {"molecule": "O=[N+]([O-])c1ccc(-c2cc(C(Br)(Br)Br)nc3ccccc23)o1", "note": "[CBr3 H NF H H H H, 2-tribromomethyl-4-[2'-(5'-nitrofuryl)]quinoline]", "values": [
      {"measurement": "MIC", "setting": "[1]", "result": 0.5, "unit": "µg/mL"},
      {"measurement": "MIC", "setting": "[2]; [4]", "result": 10, "unit": "µg/mL"},
      {"measurement": "MIC", "setting": "[3]", "result": "30 to 50", "unit": "µg/mL"}
    ]},
    {"molecule": "Cc1cc(-c2ccc([N+](=O)[O-])o2)c2cccc(C)c2n1", "note": "[CH3 H NF H H H CH3, 2,8-dimethyl-4-[2'-(5'-nitrofuryl)]quinoline]", "values": [
      {"measurement": "MIC", "setting": "[1]", "result": 0.3, "unit": "µg/mL"},
      {"measurement": "MIC", "setting": "[2]; [4]", "result": "> 50", "unit": "µg/mL"},
      {"measurement": "MIC", "setting": "[3]", "result": 5, "unit": "µg/mL"}
    ]},
    {"molecule": "COc1ccc2c(-c3ccc([N+](=O)[O-])o3)cc(C)[n+]([O-])c2c1", "note": "[O CH3 H NF H H OCH3 H, 2-methyl-4-[2'-(5'-nitrofuryl)]-7-methoxy quinoline N-oxide]", "values": [
      {"measurement": "MIC", "setting": "[1]", "result": 0.1, "unit": "µg/mL"},
      {"measurement": "MIC", "setting": "[2]; [4]", "result": 5, "unit": "µg/mL"},
      {"measurement": "MIC", "setting": "[3]", "result": 0.5, "unit": "µg/mL"}
    ]},
    {"molecule": "CCCCOc1cc2nc(C)cc(-c3ccc([N+](=O)[O-])o3)c2cc1OCCCC", "note": "[CH3 H NF H OC4 H9 OC4 H9 H]", "values": [
      {"measurement": "MIC", "setting": "[1]", "result": 5, "unit": "µg/mL"},
      {"measurement": "MIC", "setting": "[2]; [4]", "result": 10, "unit": "µg/mL"},
      {"measurement": "MIC", "setting": "[3]", "result": "> 50", "unit": "µg/mL"}
    ]},
    {"molecule": "CCCc1cc(-c2ccc([N+](=O)[O-])o2)c2ccc(C)cc2n1", "note": "[C3 H7 H NF H H CH 3 H]", "values": [
      {"measurement": "MIC", "setting": "[1]", "result": 5, "unit": "µg/mL"},
      {"measurement": "MIC", "setting": "[2]; [4]", "result": "> 50", "unit": "µg/mL"},
      {"measurement": "MIC", "setting": "[3]", "result": "> 50", "unit": "µg/mL"}
    ]},
    {"molecule": "CCc1cc(-c2ccc([N+](=O)[O-])o2)c2ccc(OC)cc2n1", "note": "[C2 H5 H 5NF H H OCH3 H]", "values": [
      {"measurement": "MIC", "setting": "[1]", "result": "0.01 to 0.5", "unit": "µg/mL"},
      {"measurement": "MIC", "setting": "[2]; [4]", "result": 25, "unit": "µg/mL"},
      {"measurement": "MIC", "setting": "[3]", "result": 10, "unit": "µg/mL"}
    ]},
    {"molecule": "Cc1cc(-c2ccc([N+](=O)[O-])o2)c2cc(C(=O)O)c(O)cc2n1", "note": "[CH3 H NF H COOH OH H]", "values": [
      {"measurement": "MIC", "setting": "[1]", "result": 10, "unit": "µg/mL"},
      {"measurement": "MIC", "setting": "[2]; [4]", "result": "> 50", "unit": "µg/mL"},
      {"measurement": "MIC", "setting": "[3]", "result": "> 50", "unit": "µg/mL"}
    ]},
    {"molecule": "CC(=O)OC(OC(C)=O)c1cc(-c2ccc([N+](=O)[O-])o2)c2ccccc2n1", "note": "[CH(OAc)2 H NF H H H H]", "values": [
      {"measurement": "MIC", "setting": "[1]", "result": 0.1, "unit": "µg/mL"},
      {"measurement": "MIC", "setting": "[2]; [4]", "result": 5, "unit": "µg/mL"},
      {"measurement": "MIC", "setting": "[3]", "result": "25 to 50", "unit": "µg/mL"}
    ]},
    {"molecule": "Cc1cc(-c2ccc([N+](=O)[O-])o2)c2ccccc2n1", "note": "[CH3 H NF H H H H, 2-methyl-4-[2'-(5'-nitrofuryl)] quinoline]", "values": [
      {"measurement": "MIC", "setting": "[1]", "result": "0.1 to 1", "unit": "µg/mL"},
      {"measurement": "MIC", "setting": "[2]; [4]", "result": 5, "unit": "µg/mL"},
      {"measurement": "MIC", "setting": "[3]", "result": 5, "unit": "µg/mL"}
    ]},
    {"molecule": "Cc1cc(-c2ccc([N+](=O)[O-])o2)c2cc3ccccc3cc2[n+]1[O-]", "note": "[O CH3 H NF H drawing 13 H]", "values": [
      {"measurement": "MIC", "setting": "[1]", "result": "0.5 to 1", "unit": "µg/mL"},
      {"measurement": "MIC", "setting": "[2]; [4]", "result": "> 50", "unit": "µg/mL"},
      {"measurement": "MIC", "setting": "[3]", "result": 50, "unit": "µg/mL"}
    ]},
    {"molecule": "O=[N+]([O-])c1ccc(-c2ccc3ccccc3n2)o1", "note": "[NF H H H H H H, 2-[2'-(5'-nitrofuryl)]quinoline]", "values": [
      {"measurement": "MIC", "setting": "[1]", "result": 0.5, "unit": "µg/mL"},
      {"measurement": "MIC", "setting": "[2]; 24 h", "result": 25, "unit": "µg/mL"},
      {"measurement": "MIC", "setting": "[3]", "result": "2 to 5", "unit": "µg/mL"}
    ]},
    {"molecule": "Cc1cc(-c2ccc([N+](=O)[O-])o2)[n+]([O-])c2ccccc12", "note": "[O NF H CH3 H H H H]", "values": [
      {"measurement": "MIC", "setting": "[1]", "result": 1, "unit": "µg/mL"},
      {"measurement": "MIC", "setting": "[2]; [4]", "result": 10, "unit": "µg/mL"},
      {"measurement": "MIC", "setting": "[3]", "result": "2 to 5", "unit": "µg/mL"}
    ]},
    {"molecule": "Cc1ccc2c(-c3ccc([N+](=O)[O-])o3)cc(C(=O)O)nc2c1", "note": "[COOH H 5NF H H CH3 H, 2-carboxy-4-[2'-(5'-nitrofuryl)]-7-methyl quinoline]", "values": [
      {"measurement": "MIC", "setting": "[1]", "result": 0.5, "unit": "µg/mL"},
      {"measurement": "MIC", "setting": "[2]; [4]", "result": 25, "unit": "µg/mL"},
      {"measurement": "MIC", "setting": "[3]", "result": 50, "unit": "µg/mL"}
    ]},
    {"molecule": "Cc1cc(-c2ccc([N+](=O)[O-])o2)c2ccccc2[n+]1[O-]", "note": "[O CH3 H NF H H H H, 2-methyl-4-[2'-(5'-nitrofuryl)] quinoline N-oxide]", "values": [
      {"measurement": "MIC", "setting": "[1]", "result": "0.2 to 0.5", "unit": "µg/mL"},
      {"measurement": "MIC", "setting": "[2]; [4]", "result": 10, "unit": "µg/mL"},
      {"measurement": "MIC", "setting": "[3]", "result": 1, "unit": "µg/mL"}
    ]},
    {"molecule": "CCc1cc(-c2ccc([N+](=O)[O-])o2)c2ccccc2[n+]1[O-]", "note": "[O C2 H5 H NF H H H H]", "values": [
      {"measurement": "MIC", "setting": "[1]", "result": 0.3, "unit": "µg/mL"},
      {"measurement": "MIC", "setting": "[2]; [4]", "result": "25 to 50", "unit": "µg/mL"},
      {"measurement": "MIC", "setting": "[3]", "result": 3, "unit": "µg/mL"}
    ]}
  ]
}
